Reference: PubChem BioAssay (NCI)
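GI50 marks 50% less growth. TGI is the concentration that stops growth completely.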

Tests used:
Assay in all cases: NCI-60 cell line screen, 384-well format
A498 renal = tested on: A498 renal
A549 NSCLC = tested on: A549 NSCLC
CAKI-1 renal = tested on: CAKI-1 renal
CCRF-CEM leukemia = tested on: CCRF-CEM leukemia
COLO 205 colon = tested on: COLO 205 colon
EKVX NSCLC = tested on: EKVX NSCLC
HCT-116 colon = tested on: HCT-116 colon
HCT-15 colon = tested on: HCT-15 colon
HOP-62 NSCLC = tested on: HOP-62 NSCLC
HOP-92 NSCLC = tested on: HOP-92 NSCLC
HS 578T breast = tested on: HS 578T breast
HT29 colon = tested on: HT29 colon
IGROV1 ovarian = tested on: IGROV1 ovarian
K-562 leukemia = tested on: K-562 leukemia
KM12 colon = tested on: KM12 colon
LOX IMVI melanoma = tested on: LOX IMVI melanoma
M14 melanoma = tested on: M14 melanoma
MALME-3M melanoma = tested on: MALME-3M melanoma
MCF7 breast = tested on: MCF7 breast
MDA-MB-435 melanoma = tested on: MDA-MB-435 melanoma
MDA-MB-468 breast = tested on: MDA-MB-468 breast
MOLT-4 leukemia = tested on: MOLT-4 leukemia
NCI-H226 lung = tested on: NCI-H226 lung
NCI-H23 lung = tested on: NCI-H23 lung
NCI/ADR-RES ovarian = tested on: NCI/ADR-RES ovarian
OVCAR-3 ovarian = tested on: OVCAR-3 ovarian
OVCAR-4 ovarian = tested on: OVCAR-4 ovarian
OVCAR-5 ovarian = tested on: OVCAR-5 ovarian
PC-3 prostate = tested on: PC-3 prostate
RPMI-8226 leukemia = tested on: RPMI-8226 leukemia
RXF 393 renal = tested on: RXF 393 renal
SF-268 CNS = tested on: SF-268 CNS
SF-295 CNS = tested on: SF-295 CNS
SF-539 CNS = tested on: SF-539 CNS
SK-MEL-2 melanoma = tested on: SK-MEL-2 melanoma
SK-MEL-5 melanoma = tested on: SK-MEL-5 melanoma
SK-OV-3 ovarian = tested on: SK-OV-3 ovarian
SNB-19 CNS = tested on: SNB-19 CNS
SNB-75 CNS = tested on: SNB-75 CNS
SR leukemia = tested on: SR leukemia
SW-620 colon = tested on: SW-620 colon
T-47D breast = tested on: T-47D breast
TK-10 renal = tested on: TK-10 renal
U251 glioblastoma = tested on: U251 glioblastoma
UACC-257 melanoma = tested on: UACC-257 melanoma
UACC-62 melanoma = tested on: UACC-62 melanoma
UO-31 renal = tested on: UO-31 renal

`Cc1cc(Nc2ncc(Cl)c(Nc3ccccc3S(=O)(=O)C(C)C)n2)c(OC(C)C)cc1C1CCNCC1` was tested, and the GI50 (A498 renal) was 1620 nM, the TGI (A498 renal) was 2990 nM and the GI50 (A549 NSCLC) was 1400 nM. It also gave a TGI (A549 NSCLC) of 2730 nM, a GI50 (CAKI-1 renal) of 1750 nM and a TGI (CAKI-1 renal) of 3140 nM. It also gave a GI50 (CCRF-CEM leukemia) of 1100 nM, a TGI (CCRF-CEM leukemia) of 2430 nM and a GI50 (COLO 205 colon) of 663 nM. It also gave a TGI (COLO 205 colon) of 1900 nM, a GI50 (EKVX NSCLC) of 1290 nM and a TGI (EKVX NSCLC) of 2570 nM. The GI50 (HCT-116 colon) was 826 nM, the TGI (HCT-116 colon) was 2070 nM and the GI50 (HCT-15 colon) was 648 nM. For the same compound, the TGI (HCT-15 colon) was 1760 nM, the GI50 (HOP-62 NSCLC) was 1710 nM and the TGI (HOP-62 NSCLC) was 3100 nM. For the same compound, the GI50 (HOP-92 NSCLC) was 1210 nM, the TGI (HOP-92 NSCLC) was 2450 nM and the GI50 (HS 578T breast) was 1640 nM. For the same compound, the TGI (HS 578T breast) was 3000 nM, the GI50 (HT29 colon) was 408 nM and the TGI (HT29 colon) was 1460 nM. The GI50 (IGROV1 ovarian) was 1270 nM, the TGI (IGROV1 ovarian) was 2580 nM and the GI50 (K-562 leukemia) was 978 nM. The TGI (K-562 leukemia) was 2150 nM, the GI50 (KM12 colon) was 1450 nM and the TGI (KM12 colon) was 2780 nM. The GI50 (LOX IMVI melanoma) was 1280 nM, the TGI (LOX IMVI melanoma) was 2560 nM and the GI50 (M14 melanoma) was 1270 nM. For the same compound, the TGI (M14 melanoma) was 2550 nM, the GI50 (MALME-3M melanoma) was 551 nM and the TGI (MALME-3M melanoma) was 1720 nM. For the same compound, the GI50 (MCF7 breast) was 297 nM, the TGI (MCF7 breast) was 1300 nM and the GI50 (MDA-MB-435 melanoma) was 1270 nM. It also gave a TGI (MDA-MB-435 melanoma) of 2550 nM, a GI50 (MDA-MB-468 breast) of 1100 nM and a TGI (MDA-MB-468 breast) of 2340 nM. The GI50 (MOLT-4 leukemia) was 711 nM, the TGI (MOLT-4 leukemia) was 1980 nM and the GI50 (NCI-H226 lung) was 929 nM. For the same compound, the TGI (NCI-H226 lung) was 2240 nM, the GI50 (NCI-H23 lung) was 1270 nM and the TGI (NCI-H23 lung) was 2550 nM. For the same compound, the GI50 (NCI/ADR-RES ovarian) was 1540 nM, the TGI (NCI/ADR-RES ovarian) was 2890 nM and the GI50 (OVCAR-3 ovarian) was 1590 nM. For the same compound, the TGI (OVCAR-3 ovarian) was 2960 nM, the GI50 (OVCAR-4 ovarian) was 1990 nM and the TGI (OVCAR-4 ovarian) was 3420 nM. The GI50 (OVCAR-5 ovarian) was 1510 nM, the TGI (OVCAR-5 ovarian) was 2850 nM and the GI50 (PC-3 prostate) was 1390 nM. It also gave a TGI (PC-3 prostate) of 2710 nM, a GI50 (RPMI-8226 leukemia) of 720 nM and a TGI (RPMI-8226 leukemia) of 1980 nM. For the same compound, the GI50 (RXF 393 renal) was 1900 nM, the TGI (RXF 393 renal) was 3310 nM and the GI50 (SF-268 CNS) was 1700 nM. The TGI (SF-268 CNS) was 3080 nM, the GI50 (SF-295 CNS) was 1700 nM and the TGI (SF-295 CNS) was 3090 nM. The GI50 (SF-539 CNS) was 1870 nM, the TGI (SF-539 CNS) was 3290 nM and the GI50 (SK-MEL-2 melanoma) was 1020 nM. The TGI (SK-MEL-2 melanoma) was 2190 nM, the GI50 (SK-MEL-5 melanoma) was 668 nM and the TGI (SK-MEL-5 melanoma) was 1280 nM. The GI50 (SK-OV-3 ovarian) was 1750 nM, the TGI (SK-OV-3 ovarian) was 3160 nM and the GI50 (SNB-19 CNS) was 1830 nM. The TGI (SNB-19 CNS) was 3240 nM, the GI50 (SNB-75 CNS) was 1860 nM and the TGI (SNB-75 CNS) was 3270 nM. The GI50 (SR leukemia) was 13.9 nM, the TGI (SR leukemia) was 26.1 nM and the GI50 (SW-620 colon) was 1060 nM. For the same compound, the TGI (SW-620 colon) was 2330 nM, the GI50 (T-47D breast) was 1400 nM and the TGI (T-47D breast) was 2710 nM. It also gave a GI50 (TK-10 renal) of 1570 nM, a TGI (TK-10 renal) of 2920 nM and a GI50 (U251 glioblastoma) of 1780 nM. It also gave a TGI (U251 glioblastoma) of 3190 nM, a GI50 (UACC-257 melanoma) of 777 nM and a TGI (UACC-257 melanoma) of 1530 nM. For the same compound, the GI50 (UACC-62 melanoma) was 1040 nM, the TGI (UACC-62 melanoma) was 2320 nM and the GI50 (UO-31 renal) was 1690 nM. For the same compound, the TGI (UO-31 renal) was 3070 nM.
